Experiment [1] concerns the target T1, Peptidyl-prolyl cis-trans isomerase FKBP4 (Homo sapiens, UniProt Q02790).
T1 sequence (Q02790 whole entry): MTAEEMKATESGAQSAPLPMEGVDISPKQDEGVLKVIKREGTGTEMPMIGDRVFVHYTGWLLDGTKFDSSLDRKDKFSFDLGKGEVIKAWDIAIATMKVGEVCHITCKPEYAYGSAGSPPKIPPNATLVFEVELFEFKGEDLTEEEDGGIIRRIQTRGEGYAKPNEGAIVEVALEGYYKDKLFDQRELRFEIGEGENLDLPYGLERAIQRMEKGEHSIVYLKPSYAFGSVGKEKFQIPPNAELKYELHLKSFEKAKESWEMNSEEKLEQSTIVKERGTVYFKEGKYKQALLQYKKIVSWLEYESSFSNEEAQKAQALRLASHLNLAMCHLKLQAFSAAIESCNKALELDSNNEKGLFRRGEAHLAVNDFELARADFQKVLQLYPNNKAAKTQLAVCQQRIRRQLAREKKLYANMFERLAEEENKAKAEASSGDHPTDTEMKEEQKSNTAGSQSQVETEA
The experiment is described as follows: Ki Estimation.

The target of experiment [2] is Peptidyl-prolyl cis-trans isomerase FKBP1A (Homo sapiens, UniProt P62942). As to the kind of experiment: Ki Estimation.
Sequence of Peptidyl-prolyl cis-trans isomerase FKBP1A (P62942 whole entry): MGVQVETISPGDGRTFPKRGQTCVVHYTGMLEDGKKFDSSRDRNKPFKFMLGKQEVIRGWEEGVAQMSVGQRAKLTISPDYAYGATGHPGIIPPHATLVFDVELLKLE

As to `Cn1c(/C=C/c2ccc(Cl)cc2)nc2ccccc21` [US12065407, ID CAP01509], the Ki in experiment [1] and in experiment [2] was greater than 10 µM in each case.

Take `Fc1ccccc1Cn1c(/C=C/c2ccccc2)nc2ccccc21` [US12065407, ID CAP01547]: the Ki in experiment [1] is greater than 15 µM; in experiment [2], greater than 10 µM. Take `C(=C\c1nc2ccccc2n1Cc1ccccc1)/c1ccccc1` [US12065407, ID CAP01548]: the Ki is greater than 20 µM in experiment [1] and greater than 15 µM in experiment [2]. The like results for `CCCn1c(/C=C/c2ccccc2)nc2ccccc21` [US12065407, ID CAP01549] were, in that order, greater than 25 µM and greater than 20 µM. Turning to `CCCCn1c(/C=C/c2ccccc2)nc2ccccc21` [US12065407, ID CAP01554], the figures for the Ki in experiment [1] and in experiment [2] were greater than 15 µM and greater than 10 µM, respectively. Take `CC(C)Cn1c(/C=C/c2ccccc2)nc2ccccc21` [US12065407, ID CAP01555]: the Ki is greater than 20 µM in experiment [1] and greater than 15 µM in experiment [2].

As to `O=C(N[C@@H](Cc1ccc(Cl)cc1)C(=O)NCCCc1ccccc1)C1C2CC3CC(C2)CC1C3` (stereo partly specified) [US12065407, ID CAP01685], the Ki in experiment [2] is 32.5 µM. The same measure, in the same setting: next, `O=C(N[C@H](Cc1ccc(Cl)cc1)C(=O)NCCCc1ccccc1)c1ccc2ccccc2c1` [US12065407, ID CAP01691]: greater than 50 µM.

As to `O=C(N[C@@H](Cc1ccc(Cl)cc1)C(=O)NCCCc1ccccc1)c1ccc(F)cc1` [US12065407, ID CAP01719], the Ki in experiment [1] and in experiment [2] was greater than 25 µM each time. For `O=C(N[C@@H](Cc1ccc(Cl)cc1)C(=O)NCCCc1ccccc1)c1nc2ccccc2[nH]1` [US12065407, ID CAP01721], the Ki in experiment [1] is greater than 50 µM. In the case of `O=C(N[C@@H](Cc1ccc(F)cc1)C(=O)NCCCc1ccccc1)c1ccc2ccccc2c1` [US12065407, ID CAP01740], the Ki in experiment [1] and in experiment [2] was greater than 40 µM in each case.

Take `CCC(C)(C)C(=O)N[C@H](C(=O)OCCCc1cccnc1)C1CCCC1` [US12065407, ID Tbl1.1]: the Ki in experiment [1] and in experiment [2] was greater than 25 µM throughout.

The term Ki denotes a measure of affinity in units of concentration, obtained from inhibition or displacement.

These data come from BindingDB's records for patent US12065407 (Plex Pharmaceuticals, 2024).
